The subject of data set [1] is HepG2. Put plainly: Cytotoxicity against human HepG2 cells assessed as cell survival at 10 to 40 uM by MTT assay. As to conditions: hepg2, 40 µM, dose 10-40 µM. The class given is toxicity, cell-based.
Data set [2] can be described thus: Toxicity in Sprague-Dawley rat assessed as inflammatory cell infiltration in colon tissue at 20 mg/kg, po for 5 days. The class given is organism-based. As to conditions: in vivo, 120 h, time 5 day.
The nature of data set [3]: MRT (0 to t) in Sprague-Dawley rat at 20 mg/kg, po measured for 24 hrs by HPLC-ESI-MS analysis. The class given is ADME, organism-based. As to conditions: in vivo.
For data set [4], the system named is HepG2. Put plainly: Lipid lowering activity in human HepG2 cells assessed as reduction in FFA-induced triglyceride content at 20 uM preincubated for 1 hr followed by FFA treatment for 24 hrs. The class given is functional, cell-based. Conditions: time 25.0 hrs.
Data set [5] relates to Mus musculus. Put plainly: Hypoglycemic activity in HFD-fed STZ-induced diabetic C57BL/6J mouse model assessed as improvement in triglyceride level in liver at 20 mg/kg, po administered everyday for 3 weeks. The class given is functional, organism-based.
Data set [6] in a line: Oral bioavailability in Sprague-Dawley rat at 20 mg/kg measured for 24 hrs by HPLC-ESI-MS analysis. Format: ADME, organism-based. Conditions: in vivo.
The subject of data set [7] is Mus musculus. Put plainly: Hypoglycemic activity in HFD-fed STZ-induced diabetic C57BL/6J mouse model assessed as decrease in blood glucose level at 20 mg/kg, po administered everyday for 3 weeks. The class given is functional, organism-based.
The nature of data set [8]: Toxicity in Sprague-Dawley rat assessed as damage in liver at 20 mg/kg, po for 5 days. The class given is organism-based. As to conditions: in vivo, 120 h, time 5 day.
Data set [9] is described as follows: Cytotoxicity against human HepG2 cells assessed as cell viability at 80 uM incubated for 24 hrs by CCK8 assay relative to control. The class given is toxicity, cell-based. As to conditions: HepG2 cells, read-out: Activity.
Data set [10] can be described thus: Toxicity in Sprague-Dawley rat assessed as damage in colon at 20 mg/kg, po for 5 days. The class given is organism-based. Conditions: in vivo, 120 h, time 5 day.
The nature of data set [11]: Toxicity in Sprague-Dawley rat assessed as damage in lungs at 20 mg/kg, po for 5 days. The class given is organism-based. Conditions: in vivo, 120 h, time 5 day.
Data set [12] in a line: Half life in Sprague-Dawley rat at 20 mg/kg, po measured for 24 hrs by HPLC-ESI-MS analysis. As to conditions: in vivo. The class given is ADME, organism-based.
Data set [13] can be described thus: Cmax in Sprague-Dawley rat at 20 mg/kg, po measured for 24 hrs by HPLC-ESI-MS analysis. The class given is ADME, organism-based. As to conditions: in vivo.
The subject of data set [14] is Mus musculus. Put plainly: Inhibition of glucose production in HFD-fed STZ-induced diabetic C57BL/6J mouse model at 20 mg/kg, po administered everyday for 3 weeks. The class given is functional, organism-based.
Data set [15] relates to Mus musculus. Put plainly: Hypoglycemic activity in HFD-fed STZ-induced diabetic C57BL/6J mouse model assessed as increase in AKT phosphorylation in liver at 20 mg/kg, po administered everyday for 3 weeks by Western blot analysis. The class given is functional, organism-based. On the technique in general: Immunoblotting shows a protein as a band on a membrane.
The nature of data set [16]: AUC (0 to t) in Sprague-Dawley rat at 20 mg/kg, po measured for 24 hrs by HPLC-ESI-MS analysis. Conditions: in vivo. Format: ADME, organism-based.
Data set [17] relates to Mus musculus. Put plainly: Hypoglycemic activity in HFD-fed STZ-induced diabetic C57BL/6J mouse model assessed as increase in hepatic glycogen synthesis at 20 mg/kg, po administered everyday for 3 weeks. Format: functional, organism-based.
A short description of data set [18]: Toxicity in Sprague-Dawley rat assessed as damage in spleen at 20 mg/kg, po for 5 days. The class given is organism-based. Conditions: in vivo, 120 h, time 5 day.
Data set [19] deals with Mus musculus. Put plainly: Hypoglycemic activity in HFD-fed STZ-induced diabetic C57BL/6J mouse model assessed as increase in GLUT4 level in liver at 20 mg/kg, po administered everyday for 3 weeks by Western blot analysis. Format: functional, organism-based.
Data set [20] in a line: Cytotoxicity against human HepG2 cells assessed as cell survival at 10 uM by MTT assay relative to control. As to conditions: read-out: Survival. Format: toxicity, cell-based. In general terms: Formazan colour is commonly taken as a measure of viable cells.
In data set [21] the test system is HepG2. Put plainly: Inhibition of insulin resistance in human HepG2 cells assessed as decrease in GlcN-induced glucose production at 20 uM preincubated for 1 hr followed by GlcN treatment for 18 hrs and subsequent insulin stimulation for 20 mins. Format: functional, cell-based. As to conditions: time 19.33 hrs.
Data set [22] concerns Mus musculus. Put plainly: Hypoglycemic activity in HFD-fed STZ-induced diabetic C57BL/6J mouse model assessed as reversal of diabetes-reduced MCCC1 level in liver at 20 mg/kg, po administered everyday for 3 weeks by Western blot analysis. The class given is functional, organism-based.
Data set [23] in a line: Solubility of compound in PBS. Format: physicochemical.
A short description of data set [24]: Cytotoxicity against human HepG2 cells assessed as cell survival at 20 uM by MTT assay relative to control. The class given is toxicity, cell-based. As to conditions: read-out: Survival.
Data set [25] concerns Mus musculus. Put plainly: Improvement in hepatic total cholesterol level of HFD-fed STZ-induced diabetic C57BL/6J mouse model at 20 mg/kg, po administered everyday for 3 weeks. Format: functional, organism-based.
A short description of data set [26]: Clearance in Sprague-Dawley rat at 20 mg/kg, po measured for 24 hrs by HPLC-ESI-MS analysis. The class given is ADME, organism-based. As to conditions: in vivo.
Data set [27] is described as follows: Volume of distribution in Sprague-Dawley rat at 20 mg/kg, po measured for 24 hrs by HPLC-ESI-MS analysis. Conditions: in vivo. Format: ADME, organism-based.
Data set [28] can be described thus: Toxicity in Sprague-Dawley rat assessed as reduction in number of crypts in colon tissue at 20 mg/kg, po for 5 days. The class given is organism-based. Conditions: in vivo, 120 h, time 5 day.
The nature of data set [29]: Tmax in Sprague-Dawley rat at 20 mg/kg, po measured for 24 hrs by HPLC-ESI-MS analysis. Format: ADME, organism-based. As to conditions: in vivo.
Data set [30] is described as follows: Toxicity in Sprague-Dawley rat assessed as damage in heart at 20 mg/kg, po for 5 days. As to conditions: in vivo, 120 h, time 5 day. The class given is organism-based.
Data set [31] relates to HepG2. Put plainly: Lipid lowering activity in human HepG2 cells assessed as inhibition of FFA-induced triglyceride content at 20 uM preincubated for 1 hr followed by FFA treatment for 24 hrs relative to control. The class given is functional.
Data set [32] relates to HepG2. Put plainly: Cytotoxicity against human HepG2 cells assessed as cell survival at 40 uM by MTT assay. The class given is toxicity, cell-based. Conditions: hepg2, 40 µM.

Structures are written as SMILES. Values after ≈ are worked out from the molar mass of the structure shown. Active and inactive are the calls of the source. The calls are words filed in the database; no cut-off is given here.

Consider `C[C@H]1[C@H](C)CC[C@]2(C(=O)NCCCNC(=O)CCCC[C@H]3SC[C@H]4NC(=O)N[C@H]43)CC[C@]3(C)C(=CC[C@@H]4[C@@]5(C)C[C@@H](O)[C@H](O)C(C)(C)[C@@H]5CC[C@]43C)[C@H]12`, for which the Activity result in data set [1] is reported as “Non-toxic”.

As a reminder, the MRT last is a mean duration of stay, worked out from the concentration-time curve. In general, bioavailability refers to the share of a dose that reaches the circulation, judged against a reference dose that is usually intravenous. Higher therefore signals good availability. Broadly, the half-life is the time in which the quantity being followed falls by half. A lower half-life goes with fast loss. The Cmax is the highest concentration seen after dosing. What is called inhibition is the percentage by which the read-out fell short of the control. The AUC(0-t) is the area under the concentration-time curve up to a stated or last time point. Low readings indicate less exposure, high ones more exposure. In general, solubility refers to the concentration that dissolves in the medium under given conditions. A low value points to a poorly soluble substance. In general, CL/F refers to clearance divided by bioavailability, as obtained after extravascular dosing. One may read the Tmax as the time at which the peak concentration occurs. `C[C@H]1[C@H](C)CC[C@]2(C(=O)O)CC[C@]3(C)C(=CC[C@@H]4[C@@]5(C)C[C@@H](O)[C@H](O)C(C)(C)[C@@H]5CC[C@]43C)[C@H]12` [COROSOLIC ACID]: the Activity result in [2] is reported as “Non-toxic”; in [7], “Active; Slight Decrease Was Observed”; in data set [8], “Non-toxic”; in data set [10], “Non-toxic”; in [11], “Non-toxic”; in data set [18] it was “Non-toxic”. Further, the Activity entry was “Active; Slight Increase Observed” in data set [19], “Non-toxic” in data set [28], “Non-toxic” in data set [30] and “Toxic” in [32]. In [3], the MRT last at 24 h was 10.2 h. Also, the outcome in [4], in [5], in data set [15], in data set [17] and in [22] was Active. This compound also had a bioavailability in [6] of less than 1%. Besides, the viability at 24 h, 80 µM in data set [9] was determined as 13.5%. In addition, the half-life in data set [12] was 991 min. The Cmax in data set [13] was 802 ng/mL. In data set [14], the inhibition result was “inactive”. This compound also came in with an AUC(0-t) at 24 h in data set [16] of 9200 ng·h/mL. Also, the viability at 10 µM in data set [20] is 96%. Besides, in [21], the inhibition entry is “Active”. This compound registered a solubility in data set [23] of 0.55 µM (≈ 0.26 µg/mL). In addition, in data set [24], the viability at 20 µM amounted to 101%. The result in [25] was inactive. The CL/F in data set [26] is 23.1 mL/min/kg. In data set [27], this compound yielded a Vd of 33040.48 mL/kg. For the same compound, the Tmax in data set [29] stood at 30 min. For the same compound, in data set [31], the inhibition at 20 µM is 61.6%.

(Values after ChEMBL document CHEMBL6121000, “Corosolic acid and its derivatives targeting MCCC1 against insulin resistance and their hypoglycemic effect on type 2 diabetic mice” (Eur J Med Chem, 2025).)
